Where only a bound is given, the exact number is not on record here.

In general, EC50 refers to the concentration at which the effect is half-maximal.

Test [1] relates to Ovarian adenocarcinoma SKOV3 cells. The test is described as follows: SKOV3 cell death assay (MTT, 72 hours). It counts as cell-based. Particulars: Homo sapiens, SK-OV-3, compound alone. As for the experimental part:
Ovarian adenocarcinoma SKOV3 cells were cultured as monolayers in McCoy's 5a medium (HyClone) supplemented with 2.2 g/L sodium bicarbonate (Gibco), 10% FBS (HyClone) and 1% penicillin/streptomycin (HyClone). Cells were seeded in 96 well plates at 5000 cells/well. After 24 hours in culture, cells were treated with compound. Cells were incubated in the presence of compound for 72 hours. Metabolic viability of remaining cells was assessed by MTT (thiazolyl blue tetrazolium bromide, Sigma) assay.
(§1) EC50 values (50% cell survival in the presence of compound as compared to untreated controls) were calculated from survival curves using BioAssay software (CambridgeSoft, HCT116 and SKOV3 SAR) and GraphPad Prism (Graph Pad Software Inc., Synoviocyte SAR).

For test [2], the system named is Colorectal carcinoma HCT116 cells. Kind of test: HCT116 + ETR1 cell death assay (MTT, 72 hours). It counts as cell-based. The following applies: with HGS ETR1 40 ng/ml. The protocol:
Colorectal carcinoma HCT116 cells were cultured as monolayers in 96 well plates at a density of 2000 cells per well in McCoy's 5a medium (HyClone) supplemented with 2.2 g/L sodium bicarbonate (Gibco), 10% FBS (HyClone) and 1% penecillin/streptomycin (HyClone). 24 hours later, triplicate wells were treated with HGS ETR1 (40 ng/ml) in combination with compound. Cells were incubated in the presence of compound and HGS agonistic Trail receptor antibody, ETR1 (Mapatumamab, 40 ng/ml) for 72 hours. Metabolic viability of remaining cells was assessed by MTT (thiazolyl blue tetrazolium bromide, Sigma) assay.
as §1

`CN[C@@H](C)C(=O)N[C@H](C(=O)N1CCC[C@H]1CN(CCc1ccccc1)C(=O)CNC(=O)c1ccc(C(=O)NCC(=O)N(CCc2ccccc2)C[C@@H]2CCCN2C(=O)[C@@H](NC(=O)[C@H](C)NC)C2CCCCC2)cc1)C1CCCCC1` [Compound 1]: the EC50 in test [1] and in test [2] was < 100 nM in each case.

For the molecule `CN[C@@H](C)C(=O)N[C@H](C(=O)N1CCC[C@H]1CN(CCc1ccccc1)C(=O)CNC(=O)c1ccc2cc(C(=O)NCC(=O)N(CCc3ccccc3)C[C@@H]3CCCN3C(=O)[C@@H](NC(=O)[C@H](C)NC)C3CCCCC3)ccc2c1)C1CCCCC1` [Compound 3], the EC50 in test [1] and in test [2] was < 100 nM in each case. Regarding `CN[C@@H](C)C(=O)N[C@H](C(=O)N1CCC[C@H]1CN(CCc1ccccc1)C(=O)CNC(=O)C1CCC(C(=O)NCC(=O)N(CCc2ccccc2)C[C@@H]2CCCN2C(=O)[C@@H](NC(=O)[C@H](C)NC)C2CCCCC2)CC1)C1CCCCC1` (some centres unmarked) [Compound 4], the EC50 in test [1] and in test [2] was < 100 nM each time.

For the molecule `CN[C@@H](C)C(=O)N[C@H](C(=O)N1CCC[C@H]1CN(CCc1ccc(F)cc1)C(=O)c1ccc(C(=O)N(CCc2ccc(F)cc2)C[C@@H]2CCCN2C(=O)[C@@H](NC(=O)[C@H](C)NC)C2CCCCC2)cc1)C1CCCCC1` [Compound 5], the EC50 in test [1] and in test [2] was < 100 nM throughout.

Regarding `CN[C@@H](C)C(=O)N[C@H](C(=O)N1CCC[C@H]1CN(CCc1ccc(F)cc1)C(=O)CNC(=O)c1ccc(C(=O)NCC(=O)N(CCc2ccc(F)cc2)C[C@@H]2CCCN2C(=O)[C@@H](NC(=O)[C@H](C)NC)C2CCCCC2)cc1)C1CCCCC1` [Compound 7], the EC50 in test [1] and in test [2] was < 100 nM in each case. Take `CN[C@@H](C)C(=O)N[C@H](C(=O)N1CCC[C@H]1CN(CCc1ccc(F)cc1)C(=O)CNC(=O)c1ccc2cc(C(=O)NCC(=O)N(CCc3ccc(F)cc3)C[C@@H]3CCCN3C(=O)[C@@H](NC(=O)[C@H](C)NC)C3CCCCC3)ccc2c1)C1CCCCC1` [Compound 9]: the EC50 in test [1] and in test [2] was < 100 nM each time. Regarding `CN[C@@H](C)C(=O)N[C@H](C(=O)N1CCC[C@H]1CN(CCc1ccc(F)cc1)C(=O)CNC(=O)C1CCC(C(=O)NCC(=O)N(CCc2ccc(F)cc2)C[C@@H]2CCCN2C(=O)[C@@H](NC(=O)[C@H](C)NC)C2CCCCC2)CC1)C1CCCCC1` (some centres unmarked) [Compound 10], the EC50 in test [2] was < 100 nM.

For `CN[C@@H](C)C(=O)N[C@H](C(=O)N1CCC[C@H]1CN(CCc1ccccc1)C(=O)c1ccc2cc(C(=O)N(CCc3ccccc3)C[C@@H]3CCCN3C(=O)[C@@H](NC(=O)[C@H](C)NC)C3CCCCC3)ccc2c1)C1CCCCC1` [Compound 12], in test [2], the EC50 was < 100 nM. Consider `CN[C@@H](C)C(=O)N[C@H](C(=O)N1CCC[C@H]1CN(CCc1ccc(OC)cc1)C(=O)c1ccc2cc(C(=O)N(CCc3ccc(OC)cc3)C[C@@H]3CCCN3C(=O)[C@@H](NC(=O)[C@H](C)NC)C3CCCCC3)ccc2c1)C1CCCCC1` [Compound 13], for which, in test [2], the EC50 is > 100 nM. As to `CN[C@@H](C)C(=O)N[C@H](C(=O)N1CCC[C@H]1CN(CCc1ccc(OC)cc1)C(=O)CNC(=O)c1ccc(-c2ccc(C(=O)NCC(=O)N(CCc3ccc(OC)cc3)C[C@@H]3CCCN3C(=O)[C@@H](NC(=O)[C@H](C)NC)C3CCCCC3)cc2)cc1)C1CCCCC1` [Compound 14], the EC50 in test [2] is > 100 nM. Same read-out and setting: the result for `CN[C@@H](C)C(=O)N[C@H](C(=O)N1CCC[C@H]1CN(C(=O)CNC(=O)c1ccc(-c2ccc(C(=O)NCC(=O)N(C[C@@H]3CCCN3C(=O)[C@@H](NC(=O)[C@H](C)NC)C3CCCCC3)C3Cc4ccccc4C3)cc2)cc1)C1Cc2ccccc2C1)C1CCCCC1` [Compound 15] reads < 100 nM. On to `CN[C@@H](C)C(=O)N[C@H](C(=O)N1CCC[C@H]1CN(CCc1ccccc1)C(=O)c1ccc2cc(C(=O)N(CCc3ccccc3)C[C@@H]3CCCN3C(=O)[C@@H](NC(=O)[C@H](C)NC)C3CCCC3)ccc2c1)C1CCCC1` [Compound 16], for which the 50% effective concentration (EC50) in test [1] and in test [2] was < 100 nM in each case.

`CN[C@@H](C)C(=O)N[C@H](C(=O)N1CCC[C@H]1CN(CCc1ccccc1)C(=O)c1ccc2cc(C(=O)N(CCc3ccccc3)C[C@@H]3CCCN3C(=O)[C@@H](NC(=O)[C@H](C)NC)c3ccccc3)ccc2c1)c1ccccc1` [Compound 24]: the EC50 in test [2] is < 100 nM.

With `CN[C@@H](C)C(=O)N[C@H](C(=O)N1CCC[C@H]1CN(CCc1ccccc1)C(=O)c1ccc(-c2ccc(C(=O)N(CCc3ccccc3)C[C@@H]3CCCN3C(=O)[C@@H](NC(=O)[C@H](C)NC)c3ccccc3)cc2)cc1)c1ccccc1` [Compound 25], in test [2], the concentration giving a half-maximal response (EC50) is < 100 nM. On the same count and under the same terms, the result for `CN[C@@H](C)C(=O)N[C@H](C(=O)N1CCC[C@H]1CN(CCc1ccccc1)C(=O)c1ccc2cc(C(=O)N(CCc3ccccc3)C[C@@H]3CCCN3C(=O)[C@@H](NC(=O)[C@H](C)NC)C3CCOCC3)ccc2c1)C1CCOCC1` [Compound 26] reads < 100 nM; that for `CN[C@@H](C)C(=O)N[C@H](C(=O)N1CCC[C@H]1CN(CCc1ccccc1)C(=O)c1ccc(-c2ccc(C(=O)N(CCc3ccccc3)C[C@@H]3CCCN3C(=O)[C@@H](NC(=O)[C@H](C)NC)C3CCOCC3)cc2)cc1)C1CCOCC1` [Compound 27], < 100 nM; that for `CN[C@@H](C)C(=O)N[C@H](C(=O)N1CCC[C@H]1CN(CCc1ccc(F)cc1)S(=O)(=O)c1ccc2cc(S(=O)(=O)N(CCc3ccc(F)cc3)C[C@@H]3CCCN3C(=O)[C@@H](NC(=O)[C@H](C)NC)C3CCCCC3)ccc2c1)C1CCCCC1` [Compound 28], < 100 nM.

As for `CN[C@@H](C)C(=O)N[C@H](C(=O)N1CCC[C@H]1CN(CCc1ccccc1)C(=O)CNC(=O)c1ccc(-c2ccc(C(=O)NCC(=O)N(CCc3ccccc3)C[C@@H]3CCCN3C(=O)[C@@H](NC(=O)[C@H](C)NC)C3CCCCC3)cn2)nc1)C1CCCCC1` [Compound 29], the half-maximal effective concentration (EC50) in test [2] was < 100 nM. `CN[C@@H](C)C(=O)N[C@H](C(=O)N1CCC[C@H]1CN(CCc1ccccc1)C(=O)c1ccc(-c2ccc(C(=O)N(CCc3ccccc3)C[C@@H]3CCCN3C(=O)[C@@H](NC(=O)[C@H](C)NC)C3CCCCC3)cn2)nc1)C1CCCCC1` [Compound 30]: in test [2], the EC50 is < 100 nM.

Turning to `CN[C@@H](C)C(=O)N[C@H](C(=O)N1CCC[C@H]1CN(CCc1ccccc1)C(=O)[C@@H](C)NC(=O)c1ccc(-c2ccc(C(=O)N[C@H](C)C(=O)N(CCc3ccccc3)C[C@@H]3CCCN3C(=O)[C@@H](NC(=O)[C@H](C)NC)C3CCCCC3)cc2)cc1)C1CCCCC1` [Compound 31], the EC50 in test [2] is < 100 nM. Turning to `CN[C@@H](C)C(=O)N[C@H](C(=O)N1CCC[C@H]1CN(CCc1ccccc1)C(=O)CN(C)C(=O)c1ccc(-c2ccc(C(=O)N(C)CC(=O)N(CCc3ccccc3)C[C@@H]3CCCN3C(=O)[C@@H](NC(=O)[C@H](C)NC)C3CCCCC3)cc2)cc1)C1CCCCC1` [Compound 32], in test [2], the EC50 was < 100 nM. On the same count and under the same terms, for `CN[C@@H](C)C(=O)N[C@H](C(=O)N1CCC[C@H]1CN(CCc1ccccc1)C(=O)[C@H](C)NC(=O)c1ccc(-c2ccc(C(=O)N[C@@H](C)C(=O)N(CCc3ccccc3)C[C@@H]3CCCN3C(=O)[C@@H](NC(=O)[C@H](C)NC)C3CCCCC3)cc2)cc1)C1CCCCC1` [Compound 33] the value was < 100 nM; for `CN[C@@H](C)C(=O)N[C@H](C(=O)N1CCC[C@H]1CN(CCc1ccccc1)C(=O)c1csc(-c2ccc(-c3nc(C(=O)N(CCc4ccccc4)C[C@@H]4CCCN4C(=O)[C@@H](NC(=O)[C@H](C)NC)C4CCCCC4)cs3)cc2)n1)C1CCCCC1` [Compound 34], < 100 nM. Same read-out and setting: for `CN[C@@H](C)C(=O)N[C@H](C(=O)N1CCC[C@H]1CN(CCc1ccccc1)C(=O)c1csc(-c2ccc(-c3ccc(-c4nc(C(=O)N(CCc5ccccc5)C[C@@H]5CCCN5C(=O)[C@@H](NC(=O)[C@H](C)NC)C5CCCCC5)cs4)cc3)cc2)n1)C1CCCCC1` [Compound 35] the value was < 100 nM. The same measure, in the same setting: the result for `CN[C@H](C(=O)N[C@H](C(=O)N1CCC[C@H]1CN(CCc1ccccc1)C(=O)c1ccc(-c2ccc(C(=O)N(CCc3ccccc3)C[C@@H]3CCCN3C(=O)[C@@H](NC(=O)[C@@H](NC)C3CC3)C3CCCCC3)cc2)cc1)C1CCCCC1)C1CC1` [Compound 36] reads < 100 nM; that for `CCN[C@@H](C)C(=O)N[C@H](C(=O)N1CCC[C@H]1CN(CCc1ccccc1)C(=O)c1ccc(-c2ccc(C(=O)N(CCc3ccccc3)C[C@@H]3CCCN3C(=O)[C@@H](NC(=O)[C@H](C)NCC)C3CCCCC3)cc2)cc1)C1CCCCC1` [Compound 37], < 100 nM. As for `CCCN[C@@H](C)C(=O)N[C@H](C(=O)N1CCC[C@H]1CN(CCc1ccccc1)C(=O)c1ccc(-c2ccc(C(=O)N(CCc3ccccc3)C[C@@H]3CCCN3C(=O)[C@@H](NC(=O)[C@H](C)NCCC)C3CCCCC3)cc2)cc1)C1CCCCC1` [Compound 38], in test [2], the EC50 is < 100 nM. `CC[C@H](NC)C(=O)N[C@H](C(=O)N1CCC[C@H]1CN(CCc1ccccc1)C(=O)c1ccc(-c2ccc(C(=O)N(CCc3ccccc3)C[C@@H]3CCCN3C(=O)[C@@H](NC(=O)[C@H](CC)NC)C3CCCCC3)cc2)cc1)C1CCCCC1` [Compound 39]: the EC50 in test [2] was < 100 nM.

(Values after patent publication US20110171171A1, “BRIDGED SECONDARY AMINES AND USE THEREOF AS IAP BIR DOMAIN BINDING COMPOUNDS” (Aegera Therapeutics, Inc., priority 2008, published 2011).)
